IC50 data for 2 compounds are collected here from PubChem BioAssay AID652220 (The Scripps Research Institute Molecular Screening Center, 2013).

In the assay the target is Serine/threonine-protein phosphatase PP1-alpha catalytic subunit (Homo sapiens) (UniProt P62136). Nature of the assay: PP1 inhibitor potency with OMFP substrate, dose response, biochemical, fluorescence, set 3 (AID 652220). Conditions: purified PP1alpha, OMFP dephosphorylation.
Chain of Serine/threonine-protein phosphatase PP1-alpha catalytic subunit (Homo sapiens) (P62136 whole entry, looked up): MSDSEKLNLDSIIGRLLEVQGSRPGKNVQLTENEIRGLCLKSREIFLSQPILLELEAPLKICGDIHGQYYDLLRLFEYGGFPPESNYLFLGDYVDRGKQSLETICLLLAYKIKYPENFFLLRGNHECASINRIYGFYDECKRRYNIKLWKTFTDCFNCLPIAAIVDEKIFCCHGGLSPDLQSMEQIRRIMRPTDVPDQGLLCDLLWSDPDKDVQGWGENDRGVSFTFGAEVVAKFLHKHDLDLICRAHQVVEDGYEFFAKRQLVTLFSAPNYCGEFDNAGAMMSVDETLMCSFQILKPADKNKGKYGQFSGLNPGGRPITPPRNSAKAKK

With `CN1CCN([C@H](c2ncccn2)c2ccc3cccnc3c2O)CC1`, the IC50 is 5.86 µM.

As for `CN1CCN([C@@H](c2ncccn2)c2ccc3cccnc3c2O)CC1`, the IC50 was 4.81 µM.
